Where two headings read alike, the source gives them in different places.
Legend:
[1] = biological target: KRAS-WT (Homo sapiens, UniProt P01116); assay: SOS-catalyzed nucleotide exchange assay (Procedure A, TR-FRET), KRAS-WT; assay type: biochemical; conditions: nucleotide exchange, read-out: KRAS WT GNE IC50
Summary of the method: (§1)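 RAS (G12C carries C51S/C80L/C118S) loaded with Bodipy-GDP, complexed with Tb-streptavidin; cpd 60 min RT; + SOS/3 mM GTP. G12C 3/40 nM, WT 1/40, NRAS 1.25/40 nM RAS/SOS, 60 min; G12V 1.25/160 nM, 90 min. Normalized to DMSO and saturating inhibitor; 4PL fit.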

[2] = biological target: KRAS-G12D (Homo sapiens, UniProt P01116, G12D); assay: SOS-catalyzed nucleotide exchange assay (Procedure A, TR-FRET), KRAS-G12D; assay type: biochemical; conditions: nucleotide exchange, read-out: KRAS G12D GNE IC50
Summary of the method: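 Signal ratio (520/495 nm, excitation 340 nm) reports Bodipy-GDP retention on biotinylated RAS after SOS-catalyzed exchange with 3 mM GTP. SOS was 40 nM, except 160 nM for G12V. Room-temperature exchange lasted 60 min (90 min for G12V), following a 60 min compound preincubation.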

[3] = biological target: KRAS-G12V (Homo sapiens, UniProt P01116, G12V); assay: SOS-catalyzed nucleotide exchange assay (Procedure A, TR-FRET), KRAS-G12V; assay type: biochemical; conditions: nucleotide exchange, read-out: KRAS G12V GNE IC50
Summary of the method: as §1

[4] = test system: AsPC-1 cells; assay: Cellular phospho-ERK assay, AsPC-1 cells (homozygous KRAS-G12D); assay type: cell-based; conditions: Homo sapiens, ASPC1, 2 h, read-out: AsPC1 pERK IC50
Summary of the method: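 10k–15k cells/well, o/n attach; cpd 2 h, 37 °C, 10-pt 1:3 from 30 μM final; lyse with protease/phosphatase inhibitors 30 min RT; multiplex SureFire p-ERK + total ERK; IC50 via 4PL on ratio.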

KRAS-WT, sequence (P01116 with tags, fused parts or gaps isoform P01116-2): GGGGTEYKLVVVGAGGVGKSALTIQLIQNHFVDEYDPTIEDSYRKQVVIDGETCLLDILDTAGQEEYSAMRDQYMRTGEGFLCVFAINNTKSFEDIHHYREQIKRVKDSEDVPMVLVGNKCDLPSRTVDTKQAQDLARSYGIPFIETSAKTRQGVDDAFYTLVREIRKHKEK
KRAS-G12D, sequence (P01116 with tags, fused parts or gaps isoform P01116-2 G12D): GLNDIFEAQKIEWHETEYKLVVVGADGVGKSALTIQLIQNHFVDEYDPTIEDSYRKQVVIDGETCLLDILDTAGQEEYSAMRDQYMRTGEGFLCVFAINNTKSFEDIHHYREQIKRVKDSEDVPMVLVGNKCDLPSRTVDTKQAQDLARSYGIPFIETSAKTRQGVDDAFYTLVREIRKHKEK
KRAS-G12V, sequence (P01116 with tags, fused parts or gaps isoform P01116-2 G12V): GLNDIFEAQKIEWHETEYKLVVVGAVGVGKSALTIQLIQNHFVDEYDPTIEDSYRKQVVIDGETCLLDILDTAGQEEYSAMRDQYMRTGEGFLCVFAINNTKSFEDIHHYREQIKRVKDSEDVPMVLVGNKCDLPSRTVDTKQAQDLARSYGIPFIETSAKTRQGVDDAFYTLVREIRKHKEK

Row | Compound | IC50 [1] [µM] | IC50 [2] [µM] | IC50 [3] [µM] | IC50 ([4]; 2 hours compound incubation) [µM] | IC50 ([4]; KRAS-G12D, 2 hours) [µM]
1 | Cc1cc2[nH]ncc2c(-c2nccc3c2sc2nc(OC[C@@]45CCCN4C[C@H](F)C5)nc(N4CCCC5(CC(=O)N5)C4)c23)c1C(F)(F)F (stereo partly drawn) [Ex-195, 6-(2-(((2R,7aS)-2-fluoro-tetrahydro-1H-pyrrolizin-7a(5H)-yl)methoxy)-8-(6-methyl-5-(trifluorometh-yl)-1H-indazol-4-yl)pyrido [4′,3′:4,5]thieno[2,3-d]pyrimidin-4-yl)-1,6-diaza-spiro[3.5]nonan-2-one] | 0.251 | 0.0767 | 0.0779 | 7.56 | 
2 | Cc1cc2[nH]ncc2c(-c2nccn3c2c(Cl)c2nc(OC[C@@]45CCCN4C[C@H](F)C5)nc(N4CCOC[C@@](C)(O)C4)c23)c1C(F)(F)F [Ex-299, (S)-4-(10-chloro-2-(((2R,7aS)-2-fluorotetrahydro-1H-pyrrolizin-7a(5H)-yl)methoxy)-9-(6-methyl-5-(trifluoromethyl)-1H-indazol-4-yl)pyrazino[1′,2′:1,5]pyrrolo[3,2-d]pyrimidin-4-yl)-6-methyl-1,4-oxazepan-6-ol] | 0.293 | 0.115 | 0.0931 |  | 1.45
3 | Cc1cc2[nH]ncc2c(-c2nc(-c3ccoc3)cc3c2sc2nc(OC[C@@]45CCCN4C[C@H](F)C5)nc(N4CCOC[C@@](C)(O)C4)c23)c1C(F)(F)F [Ex-29, (6S)-4-(2-(((2R,7aS)-2-fluorotetrahydro-1H-pyrrolizin-7a(5H)-yl)methoxy)-6-(furan-3-yl)-8-(6-methyl-5-(trifluoromethyl)-1H-indazol-4-yl)pyrido[4′,3′:4,5]thieno[2,3-d]pyrimidin-4-yl)-6-methyl-1,4-oxazepan-6-ol] | 0.852 | 0.251 | 0.143 |  | 1.53
4 | CN1CC[C@H]2C(Oc3nc(N4CCOC[C@@](C)(O)C4)c4c(n3)sc3c(-c5c(C6CC6)c(Cl)cc6[nH]ncc56)nccc34)C[C@H]21 (stereo partly drawn) [Ex-216, (6S)-4-(8-(6-chloro-5-cyclopropyl-1H-indazol-4-yl)-2-(((1R,5R,6S)-2-methyl-2-azabicyclo [3.2.0]heptan-6-yl)-oxy)pyrido[4′,3′: 4,5]thieno[2,3-d]pyrimidin-4-yl)-6-methyl-1,4-oxaze-pam-6-ol] | 1.59 | 0.464 | 0.864 | 2.9 | 
5 | CN1CCc2cc3[nH]ncc3c(-c3nccc4c3sc3nc(OC[C@@]56CCCN5C[C@H](F)C6)nc(N5CCOC[C@@](C)(O)C5)c34)c21 [Ex-125, (6S)-4-(2-(((2R,7aS)-2-fluorotetrahydro-1H-pyrrolizin-7a(5H)-yl)methoxy)-8-(5-methyl-1,5,6,7-tetrahydropyrrolo[2,3-f]indazol-4-yl)pyrido[4′,3′:4,5]thieno[2,3-d]pyrimidin-4-yl)-6-methyl-1,4-oxazepan-6-ol] | 0.161 | 0.066 | 0.094 |  | 1.03
6 | C[C@@]1(O)COCCN(c2nc(OC[C@@]34CCCN3C[C@H](F)C4)nc3sc4c(-c5c(C6CC6)c(C#N)cc6[nH]ncc56)nccc4c23)C1 [Ex-51, 5-cyclopropy1-4-(2-(((2R,7aS)-2-fluorotetrahydro-1H-pyrrolizin-7a(5H)-yl)methoxy)-4-((S)-6-hydroxy-6-methyl-1,4-oxazepan-4-yl)pyrido[4′,3′:4,5]thieno [2,3-d]pyrimidin-8-yl)-1H-indazole-6-carbonitrile] | 0.234 | 0.115 | 0.14 |  | 1.41
7 | C[C@@]1(O)COCCN(c2nc(OC[C@]3(CN4[C@@H]5CC[C@H]4C[C@H](F)C5)CC3(F)F)nc3sc4c(-c5c(C6(F)CC6)c(Cl)cc6[nH]ncc56)nccc4c23)C1 [Ex-251, (6S)-4-(8-(6-chloro-5-(1-fluorocyclopropyl)-1H-indazol-4-yl)-2-(((R)-2,2-difluoro-1-(((1R,3S,5S)-3-fluoro-8-azabicyclo[3.2.1]octan-8-yl)methyl)cyclopropyl)metho-xy)pyrido[4′,3′:4,5]thieno[2,3-d]pyrimidin-4-yl)-6-methyl-1,4-oxazepan-6-ol] | 0.489 | 0.053 | 0.11 | 0.67 | 
8 | Cc1cc2[nH]ncc2c(-c2nccc3c2sc2nc(O[C@@H](C)[C@@H]4CCCN4C)nc(N4CCOC[C@@](C)(O)C4)c23)c1C(F)(F)F [Ex-204, (6S)-6-methyl-4-(8-(6-methyl-5-(trifluoromethyl)-1H-indazol-4-yl)-2-((S)-1-((S)-1-methylpyrrolidin-2-yl)ethoxy)pyrido[4′,3′:4,5]thieno[2,3-d]pyrimidin-4-yl)-1,4-oxazepan-6-ol] | 0.936 | 0.339 | 0.239 | 2.31 | 

Stronger by IC50 [1], values ahead:

Row | IC50 [1] [µM] | IC50 [2] [µM] | IC50 [3] [µM] | IC50 ([4]; 2 hours compound incubation) [µM] | IC50 ([4]; KRAS-G12D, 2 hours) [µM] | Compound
9 | 0.0185 | 0.00656 | 0.0219 | 0.175 |  | C=C1CN2C[C@@H](OC)C[C@@]2(COc2nc(N3CCOC[C@@](C)(O)C3)c3c(n2)sc2c(-c4c(C5CC5)c(Cl)cc5[nH]ncc45)nccc23)C1 [Ex-227, (6S)-4-(8-(6-chloro-5-cyclopropyl-1H-indazol-4-yl)-2-(((25,7aR)-2-meth-oxy-6-methylene-tetrahydro-1H-pyrrolizin-7a(5H)-yl)methoxy)pyrido [4′,3′:4,5]thieno[2,3-d]pyrimidin-4-yl)-6-methyl-1,4-oxaze-pan-6-ol]
10 | 0.0338 | 0.0146 | 0.0212 |  | 0.361 | C[C@@H]1CC[C@@H](COc2nc(N3CCOC[C@@](C)(O)C3)c3c(n2)sc2c(-c4c(C5CC5)c(C(F)(F)F)cc5[nH]ncc45)nccc23)N1C [Ex-86, (6S)-4-(8-(5-cyclopropyl-6-(trifluoromethyl)-1H-indazol-4-yl)-2-(((2S,5R)-1,5-dimethylpyrrolidin-2-yl)methoxy)pyrido[4′,3′:4,5]thi-eno[2,3-d]pyrimidin-4-yl)-6-methyl-1,4-oxazepan-6-ol]
11 | 0.0797 | 0.0113 | 0.0342 | 0.184 |  | C[C@@]1(O)COCCN(c2nc(OC[C@]3(CN4CC5CC4(CF)C5)CC3(F)F)nc3sc4c(-c5c(C6(F)CC6)c(Cl)cc6[nH]ncc56)nccc4c23)C1 [Ex-259, (6S)-4-(8-(6-chloro-5-(1-fluorocyclopropyl)-1H-indazol-4-yl)-2-(((R)-2,2-difluoro-1-((1-(fluoromethyl)-2-azabicyclo[2.1.1]hexan-2-yl)methyl)cyclopropyl)metho-xy)pyrido[4′,3′:4,5]thieno[2,3-d]pyrimidin-4-yl)-6-methyl-1,4-oxazepan-6-ol]
12 | 0.0678 | 0.0231 | 0.0576 |  | 0.636 | Cc1cc2[nH]ncc2c(-c2nccn3c2c(Cl)c2nc(OC[C@@]45CCCN4C[C@H](F)C5)nc(N4CCOC[C@@](C)(O)C4)c23)c1C1CC1 (single isomer, unassigned) [Ex-297]
13 | 0.064 | 0.0354 | 0.0368 |  | 0.426 | Cn1c2nc(OC[C@@]34CCCN3C[C@H](F)C4)nc(N3CCOC[C@@](C)(O)C3)c2c2ccnc(-c3c(C4CC4)c(Cl)cc4[nH]ncc34)c21 (single isomer, unassigned) [Ex-2]
